Laboratory results reported in patent publication US10308629B2, “1H-pyrrol-3-amines” (BAYER PHARMA AKTIENGESELLSCHAFT, priority 2015, dated 2019).

biological target: (recombinant) catalytic domain of human Bub1 (amino acids 704-1085) (Homo sapiens (Human), UniProt O43683); assay: Bub1 kinase assay (TR-FRET); format: biochemical; conditions: ATP 10 μM, peptide substrate 1 μM, 60 min at 22° C., read-out: Inhibition of Bub1 kinase IC50
From the text: Bub1-inhibitory activities of compounds described in the present invention were quantified using a time-resolved fluorescence energy transfer (TR-FRET) kinase assay which measures phosphorylation of the synthetic peptide Biotin-Ahx-VLLPKKSFAEPG (SEQ ID No. 1) (C-terminus in amide form), purchased from e.g. Biosyntan (Berlin, Germany) by the (recombinant) catalytic domain of human Bub1 (amino acids 704-1085), expressed in Hi5 insect cells with an N-terminal His6-tag and purified by affinity-(Ni-NTA) and size exclusion chromatography.
In a typical assay 11 different concentrations of each compound (0.1 nM, 0.33 nM, 1.1 nM, 3.8 nM, 13 nM, 44 nM, 0.15 μM, 0.51 μM, 1.7 μM, 5.9 μM and 20 μM) were tested in duplicate within the same microtiter plate. To this end, 100-fold concentrated compound solutions (in DMSO) were previously prepared by serial dilution (1:3.4) of 2 mM stocks in a clear low volume 384-well source microtiter plate (Greiner Bio-One, Frickenhausen, Germany), from which 50 nl of compounds were transferred into a black low volume test microtiter plate from the same supplier. Subsequently, 2 μL of Bub1 (the final concentration of Bub1 was adjusted depending on the activity of the enzyme lot in order to be within the linear dynamic range of the assay: typically ˜200 ng/mL were used) in aqueous assay buffer [50 mM Tris/HCl pH 7.5, 10 mM magnesium chloride (MgCl2), 200 mM potassium chloride (KCl), 1.0 mM dithiothreitol (DTT), 0.1 mM sodium ortho-vanadate, 1% (v/v) glycerol, 0.01% (w/v) bovine serum albumine (BSA), 0.005% (v/v) Trition X-100 (Sigma), 1× Complete EDTA-free protease inhibitor mixture (Roche)] were added to the compounds in the test plate and the mixture was incubated for 15 min at 22° C. to allow pre-equilibration of the putative enzyme-inhibitor complexes before the start of the kinase reaction, which was initiated by the addition of 3 μL 1.67-fold concentrated solution (in assay buffer) of adenosine-tri-phosphate (ATP, 10 μM final concentration) and peptide substrate (1 μM final concentration). The resulting mixture (5 μL final volume) was incubated at 22° C. during 60 min. and the reaction w as stopped by the addition of 5 μL of an aqueous EDTA-solution (50 mM EDTA, in 100 mM HEPES pH 7.5 and 0.2% (w/v) bovine serum albumin) which also contained the TR-FRET detection reagents (0.2 μM streptavidin-XL665 [Cisbio Bioassays, Codolet, France] and 1 nM anti-phosho-Serine antibody [Merck Millipore, cat. #35-002] and 0.4 nM LANCE EU-W1024 labeled anti-mouse IgG antibody [Perkin-Elmer, product no. AD0077, alternatively a Terbium-cryptate-labeled anti-mouse IgG antibody from Cisbio Bioassays can be used]). The stopped reaction mixture was further incubated 1 h at 22° C. in order to allow the formation of complexes between peptides and detection reagents. Subsequently, the amount of product was evaluated by measurement of the resonance energy transfer from the Eu-chelate-antibody complex recognizing the Phosphoserine residue to the streptavidin-XL665 bound to the biotin moiety of the peptide. To this end, the fluorescence emissions at 620 nm and 665 nm after excitation at 330-350 nm were measured in a TR-FRET plate reader, e.g. a Rubystar or Pherastar (both from BMG Labtechnologies, Offenburg, Germany) or a Viewlux (Perkin-Elmer) and the ratio of the emissions (665 nm/622 nm) was taken as indicator for the amount of phosphorylated substrate. The data were normalised using two sets of control wells for high−(=enzyme reaction without inhibitor=0%=Minimum inhibition) and low−(=all assay components without enzyme=100%=Maximum inhibition) Bub1 activity. IC50 values were calculated by fitting the normalized inhibition data to a 4-parameter logistic equation (Minimum, Maximum, IC50, Hill; Y=Max+(Min−Max)/(1+(X/IC50)Hill)).

Sequence of (recombinant) catalytic domain of human Bub1 (amino acids 704-1085) (O43683 704-1085): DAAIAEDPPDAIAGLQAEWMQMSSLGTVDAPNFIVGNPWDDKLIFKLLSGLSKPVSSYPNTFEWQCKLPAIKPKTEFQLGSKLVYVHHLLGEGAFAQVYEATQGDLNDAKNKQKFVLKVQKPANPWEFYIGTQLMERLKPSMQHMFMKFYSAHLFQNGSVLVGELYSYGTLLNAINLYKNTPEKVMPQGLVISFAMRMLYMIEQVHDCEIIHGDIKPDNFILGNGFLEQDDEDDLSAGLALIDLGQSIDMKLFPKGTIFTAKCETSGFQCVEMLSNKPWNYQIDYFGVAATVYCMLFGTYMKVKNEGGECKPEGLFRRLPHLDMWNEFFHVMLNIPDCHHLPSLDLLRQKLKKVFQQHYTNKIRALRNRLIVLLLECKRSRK

| IC50 | Molecule |
| --- | --- |
| 16 nM | (1S,2S)-2-Fluoro-N-4-[[(4aS,5aS) or (4aR,5aR)]-5a-methyl-4-oxo-3-(phenylamino)-1,4,4a,5,5a,6-hexahydrocyclopropa[f]indol-2-yl]pyridin-2-ylcyclopropanecarboxamide [Example 36] |
| 35 nM | Cn1ccc(C(=O)Nc2cc(-c3[nH]c4c(c3Nc3ccccc3)C(=O)[C@H]3C[C@@]3(C)C4=O)ccn2)n1 (relative stereo) [Example 34, 1-Methyl-N-4-[rel-(4aS,5aR)-5a-methyl-4,6-dioxo-3-(phenylamino)-1,4,4a,5,5a,6-hexahydrocyclopropa[f]indol-2-yl]pyridin-2-yl-1H-pyrazole-3-carboxamide] |
| 4 nM | (4aS,5aS or 4aR,5aR)-3-(Phenylamino)-2-(pyridin-4-yl)-4a,5,5a,6-tetrahydrocyclopropa[f]indol-4(1H)-one [Example 14] |
| 26 nM | Cc1ccc(=O)c2c(Nc3ccccc3)c(-c3ccnc(N)c3)[nH]c2c1 [Example 23, 2-(2-Aminopyridin-4-yl)-7-methyl-3-(phenylamino)cyclohepta[b]pyrrol-4(1H)-one] |
| 5 nM | (4aR,5aR or 4aS,5aS)-5a-Methyl-3-(phenylamino)-2-(pyridin-4-yl)-4a,5,5a,6-tetrahydrocyclopropa[f]indol-4(1H)-one [Example 17] |
| 6 nM | CC(=O)Nc1cc(-c2[nH]c3c(c2Nc2ccccc2)C(=O)[C@@H]2C[C@@H]2C3)ccn1 (relative stereo) [Example 15, rel-(4aR,5aR)-N-4-[4-oxo-3-(Phenylamino)-1,4,4a,5,5a,6-hexahydrocyclopropa[f]indol-2-yl]pyridin-2-ylacetamide] |
| 27 nM | N-4-[[(7S) or (7R)]-7-Methyl-4-oxo-3-(phenylamino)-1,4,5,6,7,8-hexahydrocyclohepta[b]pyrrol-2-yl]pyridin-2-ylacetamide [Example 38] |
| 6 nM | O=C1CCCCc2[nH]c(-c3ccncc3)c(Nc3ccccc3)c21 [Example 22, 3-(Phenylamino)-2-(pyridin-4-yl)-5,6,7,8-tetrahydrocyclohepta[b]pyrrol-4(1H)-one] |
| 5 nM | N-4-[[(4aS,5aS) or (4aR,5aR)]-5a-Methyl-4-oxo-3-(phenylamino)-1,4,4a,5,5a,6-hexahydrocyclopropa[f]indol-2-yl]pyridin-2-yl-1H-pyrazole-3-carboxamide [Example 44] |
| 25 nM | CC1CCC(=O)c2c([nH]c(-c3ccnc(N)c3)c2Nc2ccccc2)C1 (racemic) [Example 24, (7RS)-2-(2-Aminopyridin-4-yl)-7-methyl-3-(phenylamino)-5,6,7,8-tetrahydrocyclohepta[b]pyrrol-4(1H)-one] |
| 13 nM | N-{4-[[(4aR,5aR) or (4aS,5aS)]-3-anilino-5a-methyl-4-oxo-1,4,4a,5,5a,6-hexahydrocyclopropa[f]indol-2-yl]pyridin-2-yl}-3-fluoro-4-methoxybenzamide [Example 50] |
| 71 nM | COc1cc(C(=O)Nc2cc(-c3[nH]c4c(c3Nc3ccccc3)C(=O)[C@H]3C[C@@]3(C)C4=O)ccn2)ccc1F (relative stereo) [Example 35, 4-Fluoro-3-methoxy-N-4-[rel-(4aS,5aR)-5a-methyl-4,6-dioxo-3-(phenylamino)-1,4,4a,5,5a,6-hexahydrocyclopropa[f]indol-2-yl]pyridin-2-ylbenzamide] |
| 36 nM | N-4-[(4aS,5aS or 4aR,5aR)-5a-Methyl-4-oxo-3-(phenylamino)-1,4,4a,5,5a,6-hexahydrocyclopropa[f]indol-2-yl]pyridin-2-ylacetamide [Example 20] |
| 133 nM | C[C@@]12C[C@@H]1C(=O)c1c([nH]c(-c3ccnc(NC(=O)C4(F)CC4)c3)c1Nc1ccccc1)C2=O (relative stereo) [Example 29, 1-Fluoro-N-4-[rel-(4aS,5aR)-5a-methyl-4,6-dioxo-3-(phenylamino)-1,4,4a,5,5a,6-hexahydrocyclopropa[f]indol-2-yl]pyridin-2-ylcyclopropanecarboxamide] |

The remaining lines, values behind:

| Molecule | IC50 |
| --- | --- |
| 2-Fluoro-2-methyl-N-4-[[(4aS,5aS) or (4aR,5aR)]-5a-methyl-4-oxo-3-(phenylamino)-1,4,4a,5,5a,6-hexahydrocyclopropa[f]indol-2-yl]pyridin-2-ylpropanamide [Example 40] | 22 nM |
| (4aS,5aS or 4aR,5aR)-5a-Methyl-3-(phenylamino)-2-(pyridin-4-yl)-4a,5,5a,6-tetrahydrocyclopropa[f]indol-4(1H)-one [Example 18] | 6 nM |
| CC1(C(=O)Nc2cc(-c3[nH]c4c(c3Nc3ccccc3)C(=O)[C@@H]3C[C@]3(C)C4=O)ccn2)CC1 (relative stereo) [Example 33, N-{4-[rel-(4aR,5aS)-3-Anilino-5a-methyl-4,6-dioxo-1,4,4a,5,5a,6-hexahydrocyclopropa[f]indol-2-yl]pyridin-2-yl}-1-methylcyclopropanecarboxamide] | 110 nM |
| CC(=O)Nc1cc(-c2[nH]c3c(c2Nc2ccccc2)C(=O)[C@@H]2C[C@H]3C2(C)C)ccn1 (relative stereo) [Example 5, N-4-[rel-(5R,7S)-6,6-Dimethyl-4-oxo-3-(phenylamino)-4,5,6,7-tetrahydro-1H-5,7-methanoindol-2-yl]pyridin-2-ylacetamide] | 115 nM |
| (5R,7S or 5S,7R)-2-(2-Aminopyridin-4-yl)-6,6-dimethyl-3-(phenylamino)-1,5,6,7-tetrahydro-4H-5,7-methanoindol-4-one [Example 3] | 648 nM |
| CC1(C)[C@@H]2C[C@H]1C(=O)c1c2[nH]c(-c2ccncc2)c1Nc1ccccc1 (relative stereo) [Example 1, rel-(5R,7S)-6,6-Dimethyl-3-(phenylamino)-2-(pyridin-4-yl)-1,5,6,7-tetrahydro-4H-5,7-methanoindol-4-one] | 146 nM |
| 1-Methyl-N-4-[[(4aS,5aS) or (4aR,5aR)]-5a-methyl-4-oxo-3-(phenylamino)-1,4,4a,5,5a,6-hexahydrocyclopropa[f]indol-2-yl]pyridin-2-yl-1H-pyrazole-5-carboxamide [Example 42] | 11 nM |
| C[C@@]12Cc3[nH]c(-c4ccncc4)c(Nc4ccccc4)c3C(=O)[C@@H]1C2 (relative stereo) [Example 16, rel-(4aR,5aR)-5a-Methyl-3-(phenylamino)-2-(pyridin-4-yl)-4a,5,5a,6-tetrahydrocyclopropa[f]indol-4(1H)-one] | 6 nM |
| COC(=O)Nc1cc(-c2[nH]c3c(c2Nc2ccccc2)C(=O)[C@@H]2C[C@H]3C2(C)C)ccn1 (relative stereo) [Example 7, methyl 4-[rel-(5R,7S)-6,6-Dimethyl-4-oxo-3-(phenylamino)-4,5,6,7-tetrahydro-1H-5,7-methanoindol-2-yl]pyridin-2-ylcarbamate] | 68 nM |
| N-{4-[[(4aR,5aR) or (4aS,5aS)]-3-Anilino-5a-methyl-4-oxo-1,4,4a,5,5a,6-hexahydrocyclopropa[f]indol-2-yl]pyridin-2-yl}-2,6-difluorobenzamide [Example 46] | 4 nM |
| 1-Fluoro-N-4-[[(4aR,5aR) or (4aS,5aS)]-5a-methyl-4-oxo-3-(phenylamino)-1,4,4a,5,5a,6-hexahydrocyclopropa[f]indol-2-yl]pyridin-2-ylcyclopropanecarboxamide [Example 31] | 52 nM |
| O=c1ccccc2[nH]c(-c3ccncc3)c(Nc3ccccc3)c12 [Example 21, 3-(Phenylamino)-2-(pyridin-4-yl)cyclohepta[b]pyrrol-4(1H)-one] | 8 nM |
